# Laboratory results from patent US11911388B2, “Treatment for diabetes in patients with insufficient glycemic control despite therapy with an oral or non-oral antidiabetic drug” (Boehringer Ingelheim International GmbH, priority 2008, dated 2024).
# Entries after “also recorded” stand apart in the source; their conditions may differ.
# Legend:
# db/db mice [1] = assay: Insulin during OGTT (2 g/kg) on day 59 in db/db mice; assay type: in vivo, mouse; settings: 3 mg/kg p.o. daily, day 59, OGTT 2 g/kg, t=15 min
# Description: Sulfonylurea (SU) like glibenclamide are one of the most frequently used drugs in diabetes treatment. Long-term treatment with SU causes elevated basal insulin secretion and decreased glucose-stimulated insulin secretion. These characteristics may play an important role for the development of hypoglycemia and secondary drug failure. […] In addition, correlating with age of the animals pancreatic β-cells of aging db/db mice fails to compensate the high glucose excursion with enhanced insulin secretion. Therefore this model is appropriate to study the glibenclamide induced secondary drug failure in comparison to a DPP-4 inhibitor (e.g. BI 1356).
# Female db/db mice at 5 weeks of age, are obtained from Charles River, Germany. […]
# The compound solutions are administered daily at 08.00 AM on experimental days 0-59 by per oral gavage using a gastric tube connected to a 3 ml syringe (Luer-lock™, Becton). […] Body weight food intake and water intake is recorded daily for the first two and twice weekly for the remaining period. On experimental day 54 blood glucose and HbA1c levels are determined in semi-fed state, on day 59 an OGTT (2 g/kg) is performed.
# Blood samples for determination of “fed” levels blood glucose and HbA1c are performed at 10.00 AM on day 54. […] At day 59 an OGTT (2 g/kg) is performed following an over-night fast of the animals and insulin is detected at t=15 min. […]
# db/db mice [2] = assay: HbA1c and blood glucose after 54 day treatment of db/db mice (SU secondary drug failure model); assay type: in vivo, mouse; settings: 3 mg/kg p.o. daily, day 54, female db/db mice; for glucose values compared to control: semi-fed
# Description: Sulfonylurea (SU) like glibenclamide are one of the most frequently used drugs in diabetes treatment. Long-term treatment with SU causes elevated basal insulin secretion and decreased glucose-stimulated insulin secretion. These characteristics may play an important role for the development of hypoglycemia and secondary drug failure. […] In addition, correlating with age of the animals pancreatic β-cells of aging db/db mice fails to compensate the high glucose excursion with enhanced insulin secretion. Therefore this model is appropriate to study the glibenclamide induced secondary drug failure in comparison to a DPP-4 inhibitor (e.g. BI 1356). Female db/db mice at 5 weeks of age, are obtained from Charles River, Germany. Animals are housed in groups of 5-6 animals under a 12:[…] cycle (lights on at 04:00 AM and lights off at 04:00 PM) in temperature and humidity controlled rooms. All animals have free access to regular rodent chow (Altromin standard #1324 chow, Denmark) and water ad libitum. The compound solutions are administered daily at 08.00 AM on experimental days 0-59 by per oral gavage using a gastric tube connected to a 3 ml syringe (Luer-lockTM, Becton). Groups of 12 animals are used: vehicle, 0.5% Natrosol; BI 1356 3 mg/kg; glibenclamide 3 mg/kg. Body weight food intake and water intake is recorded daily for the first two and twice weekly for the remaining period. On experimental day 54 blood glucose and HbA1c levels are determined in semi-fed state, on day 59 an OGTT (2 g/kg) is performed. Blood samples for determination of “fed” levels blood glucose and HbA1c are performed at 10.00 AM on day 54. Prior to blood sampling animals are transferred to clean cages with no food two hours before blood sampling. At day 59 an OGTT (2 g/kg) is performed following an over-night fast of the animals and insulin is detected at t=15 min. For each data point, 10 μl blood is drawn from the tip of the tail into a microcapillary tube and measured using a Biosen S line glucose analyzer. HbA1c: are measured using a standard enzyme assay kit on a fully automated analyzer (Bayer).
Compound,increase in insulin during OGTT (db/db mice [1]),HbA1c compared to control (db/db mice [2]),glucose values compared to control (db/db mice [2]),"form and route of excretion (human, in vivo)",excretion via the kidney (therapeutic oral dose levels)
CC#CCn1c(N2CCC[C@@H](N)C2)nc2c1c(=O)n(Cc1nc(C)c3ccccc3n1)c(=O)n2C [BI 1356],able to respond to the increased glucose levels with an up-regulation of insulin; also recorded: superior to glibenclamide,improves; also recorded: superior to glibenclamide,improves; also recorded: superior to glibenclamide,primarily excreted unchanged via the bile,< 7 % of the administered oral dose
"COc1ccc(Cl)cc1C(=O)NCCc1ccc(S(=O)(=O)NC(=O)NC2CCCCC2)cc1 [glibenclamide, reference compound]",–,impairs,impairs,–,–
